Our source for the IC50 values is patent publication US9309285B2, “Macrocyclic broad spectrum antibiotics” (priority 2012, dated 2016).

One assay deals with T1, E. coli SPase (Escherichia coli, UniProt P00803).
T1 construct: Full length His-tagged E. coli and S. aureus SPase proteins were expressed in E. coli BL21; His tag; made in house; host or cells: E. coli BL21 (DE3)
Kind of assay: SPase enzyme inhibition assay, fluorogenic peptide substrate, E. coli. The assay is classed as biochemical. The following applies: 3 nM E. coli SPase, 20 μM substrate, 10 minutes pre-incubation, room temperature; read-out: IC 50 (nM) E. coli. Here is the method: (§1) Briefly, for expression of E. coli SPase, saturated overnight cultures grown in 20 ml of Luria-Bertani medium supplemented with ampicillin were subcultures into 1.5 L of Luria-Bertani, and shaken at 37° C. until an optical density at 600 nm of 0.4-0.5 was achieved. […] S. aureus SPase was expressed and purified similarly, with the following exceptions. […] Resin bound protein was washed in a similar buffer containing 1% Elugent in place of Triton X-100 prior to protein elution in wash buffer supplemented with 300 mM imidazole. […] All protein concentrations were determined by BCA assay.
(§2) Enzyme master solution was prepared by diluting Escherichia coli or Staphylococcus aureus SPase protein into reaction buffer to a final concentration of 3 nM or 10 nM respectively. Reaction buffer consisted of 20 mM NaKHPO4 pH 7.4, 100 mM NaCl, and 1% v/v Elugent™ detergent. Reactions were initiated by the addition of substrate to a final concentration of 20 μM. Reaction progress was monitored by measuring the increase in fluorescence signal (excitation at 314 nm, emission at 416 nm) using a SpectraMax M2 fluorescence microplate reader. […] Three-folder serial dilutions of test compounds, starting at 10 μM, were prepared in enzyme mix solution and incubated at room temperature for 10 minutes. Following this incubation, fluorogenic substrate was added to a final concentration of 20 μM and the increase in fluorescence, corresponding to substrate cleavage, was monitored continuously at room temperature for 1 hour. Initial reaction rates were calculated based on the rate of increase in fluorescence during the reaction. Reaction rates were plotted as a function of compound concentration, and IC50 values were determined nonlinear regression analysis (SoftMaxPro 5.4, Molecular Devices™) of the sigmoidal dose-response curve.

The next assay addresses T2, S. aureus SPase (Staphylococcus aureus, UniProt P0A070).
T2 construct: Full length His-tagged E. coli and S. aureus SPase proteins were expressed in E. coli BL21; His tag; made in house; host or cells: E. coli BL21 (DE3)
T2 sequence (P0A070 1-191): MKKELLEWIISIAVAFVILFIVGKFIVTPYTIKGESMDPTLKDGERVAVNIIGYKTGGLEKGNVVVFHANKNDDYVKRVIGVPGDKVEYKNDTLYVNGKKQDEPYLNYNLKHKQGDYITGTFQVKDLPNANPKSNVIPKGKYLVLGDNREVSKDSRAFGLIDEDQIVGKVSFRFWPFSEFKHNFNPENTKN
Kind of assay: SPase enzyme inhibition assay, fluorogenic peptide substrate, S. aureus. It counts as biochemical. Here is the method:
as §1, §2

Positions of bridges follow the written chain, without caps; N, C: chain ends. Non-standard residues stand in square brackets, D forms with d. Residues, ends and D or L forms follow the SMILES beside them. *: point of attachment. boroAla((+)-pinanediol) = C[C@H](N*)B1O[C@@H]2C[C@@H]3C[C@@H](C3(C)C)[C@]2(C)O1; Biphenylcarbonyl(4'-Bu) = CCCCc1ccc(-c2ccc(C(=O)*)cc2)cc1; Aad = N[C@@H](CCCC(=O)O)C(=O)O; Orn = NCCC[C@H](N)C(=O)O Bounds are passed on as bounds.

T1 sequence (P00803 whole entry): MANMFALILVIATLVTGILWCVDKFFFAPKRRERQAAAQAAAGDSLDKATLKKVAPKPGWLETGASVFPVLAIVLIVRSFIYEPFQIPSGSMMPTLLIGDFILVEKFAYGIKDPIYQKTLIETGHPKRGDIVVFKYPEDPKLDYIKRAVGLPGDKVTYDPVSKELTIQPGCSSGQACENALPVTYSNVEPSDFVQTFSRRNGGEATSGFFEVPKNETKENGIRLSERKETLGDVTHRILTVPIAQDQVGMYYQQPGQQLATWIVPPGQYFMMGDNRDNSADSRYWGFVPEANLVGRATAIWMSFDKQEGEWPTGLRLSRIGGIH

As for `CCCCc1ccc(-c2ccc(C(=O)N[C@@H](CCCCN)C(=O)N(C)[C@@H]3C(=O)N[C@@H](C)C(=O)N[C@H](C(=O)O)Cc4ccc(O)c(c4)-c4cc3ccc4O)cc2)cc1` [Compound 110], the IC50 on E. coli SPase worked out at 1.4 nM; against S. aureus SPase, 350 nM.
For `CCCCCCCCCCCCCC(=O)N[C@@H](CCCCN)C(=O)N(C)[C@@H]1C(=O)N[C@@H](C)C(=O)N[C@H](C(=O)O)Cc2ccc(O)c(c2)-c2cc1ccc2O` [Compound 111] the same measures were 2.2 nM and 160 nM.
Consider `CCCCCCCCCCCCCC(=O)N[C@@H](CCCCN)C(=O)N(C)[C@@H]1C(=O)N[C@@H](C)C(=O)N[C@H](C(=O)NCB(O)O)Cc2ccc(O)c(c2)-c2cc1ccc2O` [Compound 118], for which the IC50 was 7.6 nM on E. coli SPase and 31 nM on S. aureus SPase.
Take `CCCCCCCCCCCCCC(=O)N[C@@H](CCCCN)C(=O)N(C)[C@@H]1C(=O)N[C@@H](C)C(=O)N[C@H](C(=O)N[C@@H](C)B(O)O)Cc2ccc(O)c(c2)-c2cc1ccc2O` [Compound 119]: the figures for the IC50 on E. coli SPase and against S. aureus SPase were 8.6 nM and 33 nM, respectively.
As to `CCCCc1ccc(-c2ccc(C(=O)NC[C@@H](C)C(=O)N[C@@H](CCCCN)C(=O)N(C)[C@@H]3C(=O)N[C@@H](C)C(=O)N[C@H](C(=O)N[C@@H](C)B4OC5C[C@@H]6C[C@@H](C6(C)C)[C@]5(C)O4)Cc4ccc(O)c(c4)-c4cc3ccc4O)cc2)cc1` (some centres unmarked) [Compound 120], the IC50 was determined as 18 nM on E. coli SPase and 220 nM against S. aureus SPase.
For `CCCCCCCC(=O)NCCC(=O)N[C@@H](CCCCN)C(=O)N(C)[C@@H]1C(=O)N[C@@H](C)C(=O)N[C@H](C(=O)O)Cc2ccc(O)c(c2)-c2cc1ccc2O` [Compound 122], in that order: 27 nM and 130 nM.
For the molecule `CCCCCCCC(=O)N[C@@H](CCCCN)C(=O)N(C)[C@@H]1C(=O)N[C@@H](C)C(=O)N[C@H](C(=O)O)Cc2ccc(O)c(c2)-c2cc1ccc2O` [Compound 124], the IC50 on E. coli SPase is 23 nM; at S. aureus SPase, 1000 nM.
For `C[C@@H]1NC(=O)[C@@H](N(C)C(=O)[C@H](CCCCN)NC(=O)c2ccc(-c3ccc(Cl)cc3)cc2)c2ccc(O)c(c2)-c2cc(ccc2O)C[C@@H](C(=O)O)NC1=O` [Compound 127], the IC50 at E. coli SPase was 1.4 nM; against S. aureus SPase, 440 nM.
In the case of `C[C@@H]1NC(=O)[C@@H](N(C)C(=O)[C@H](CCN)NC(=O)c2ccc(-c3ccc(Cl)cc3)cc2)c2ccc(O)c(c2)-c2cc(ccc2O)C[C@@H](C(=O)O)NC1=O` [Compound 128], the IC50 at E. coli SPase was determined as 1.5 nM; against S. aureus SPase, 3500 nM.
As to `CCCCCCCC(=O)NCCC(=O)N[C@@H](CCCCN)C(=O)N(C)[C@@H]1C(=O)N[C@@H](C)C(=O)N[C@H](C(=O)N[C@@H](C)C(N)=O)Cc2ccc(O)c(c2)-c2cc1ccc2O` [Compound 129], the IC50 at E. coli SPase came out at 370 nM; on S. aureus SPase, 140 nM.
Take `CCCCCCCC(=O)NCCC(=O)N[C@@H](CCCCN)C(=O)N(C)[C@@H]1C(=O)N[C@@H](C)C(=O)N[C@H](C(N)=O)Cc2ccc(O)c(c2)-c2cc1ccc2O` [Compound 130]: the results for the IC50 at E. coli SPase and against S. aureus SPase were 160 nM and 580 nM, respectively.
On to `CCCCCCCC(=O)NCCC(=O)N[C@@H](CCCCN)C(=O)N(C)[C@@H]1C(=O)N[C@@H](C)C(=O)N[C@H](C(=O)N[C@@H](C)C(=O)N2CCC[C@H]2C(N)=O)Cc2ccc(O)c(c2)-c2cc1ccc2O` [Compound 131], for which the IC50 at E. coli SPase turned out to be 180 nM; at S. aureus SPase it was 3.3 nM.
`CNC(=O)[C@@H]1CCCN1C(=O)[C@H](C)NC(=O)[C@@H]1Cc2ccc(O)c(c2)-c2cc(ccc2O)[C@H](N(C)C(=O)[C@H](CCCCN)NC(=O)c2ccc(-c3ccc(Cl)cc3)cc2)C(=O)N[C@@H](C)C(=O)N1` [Compound 136]: the IC50 was determined as 44 nM at E. coli SPase and 47 nM on S. aureus SPase.
Turning to `C[C@@H]1NC(=O)[C@@H](N(C)C(=O)[C@H](CCCCN)NC(=O)c2ccc(-c3ccc(Cl)cc3)cc2)c2ccc(O)c(c2)-c2cc(ccc2O)C[C@@H](C(=O)N[C@@H](C)C(=O)N(C)C)NC1=O` [Compound 137], the IC50 on E. coli SPase was determined as 350 nM; at S. aureus SPase it was 3100 nM.
As for `CCCCc1ccc(-c2ccc(C(=O)NC[C@@H](C)C(=O)N[C@@H](CCCCN)C(=O)N(C)[C@@H]3C(=O)N[C@@H](C)C(=O)N[C@H](C(=O)N[C@@H](C)C(=O)N4CCC[C@H]4C(N)=O)Cc4ccc(O)c(c4)-c4cc3ccc4O)cc2)cc1` [Compound 138], the IC50 at E. coli SPase worked out at 30 nM; at S. aureus SPase, 78 nM.
For the molecule `CCCCc1ccc(-c2ccc(C(=O)N[C@@H](CCCCN)C(=O)N[C@H]3CCC(=O)NCCCC[C@@H](C(=O)N[C@@H](C)B4O[C@@H]5C[C@@H]6C[C@@H](C6(C)C)[C@]5(C)O4)NC(=O)[C@H](C)NC3=O)cc2)cc1` [Compound 201] ({Biphenylcarbonyl(4'-Bu)}-KEAK-{boroAla((+)-pinanediol)}; lactam 2-4), the values for the IC50 on E. coli SPase and on S. aureus SPase were 15 nM and 150 nM, respectively.
`CCCCc1ccc(-c2ccc(C(=O)N[C@@H](CCCCN)C(=O)N[C@H]3CCC(=O)NCCC[C@@H](C(=O)N[C@@H](C)B4O[C@@H]5C[C@@H]6C[C@@H](C6(C)C)[C@]5(C)O4)NC(=O)[C@H](C)NC3=O)cc2)cc1` [Compound 202] ({Biphenylcarbonyl(4'-Bu)}-KEA[Orn]-{boroAla((+)-pinanediol)}; lactam 2-4): the IC50 turned out to be 28 nM on E. coli SPase and 200 nM on S. aureus SPase.
Take `CCCCc1ccc(-c2ccc(C(=O)N[C@@H](CCCCN)C(=O)N[C@H]3CCCC(=O)NCCCC[C@@H](C(=O)N[C@@H](C)B4O[C@@H]5C[C@@H]6C[C@@H](C6(C)C)[C@]5(C)O4)NC(=O)[C@H](C)NC3=O)cc2)cc1` [Compound 203] ({Biphenylcarbonyl(4'-Bu)}-K[Aad]AK-{boroAla((+)-pinanediol)}; lactam 2-4): the figures for the IC50 at E. coli SPase and against S. aureus SPase were 8.9 nM and 81 nM, respectively.
On to `CCCCc1ccc(-c2ccc(C(=O)N[C@@H](CCCCN)C(=O)N(C)[C@@H]3C(=O)N[C@@H](C)C(=O)N[C@H](C(=O)N[C@@H](C)B4O[C@@H]5C[C@@H]6C[C@@H](C6(C)C)[C@]5(C)O4)CCCCCc4cc3ccc4OC)cc2)cc1` [Compound 208], for which the IC50 at E. coli SPase was 680 nM; against S. aureus SPase, over 10000 nM.
